# Experiments:
# [1] = complex formation of cucurbituril homologues with menthol, analyzed by 1H-NMR; type: binding; conditions: slurry with 11.8 mg menthol and 0.5 mL distilled water, molar ratio 1:1, dried complex
# Experimental: A complex was prepared by mixing 100 mg of cucurbit[7]uril and 11.8 mg of menthol at a molar ratio of 1:1. 79.5 mg of cucurbit[6]uril and 118.3 mg of cucurbit[8]uril were respectively put into two mortars, and 11.8 mg of menthol was added to each of the mortars. 0.5 mL of distilled water was added to form a slurry, and then the slurry was stirred for 10 minutes using a pestle to prepare a complex. The complex was dried in an oven at […] for 6 hours. The dried complex was analyzed by 1H-NMR.
# [2] = exchange of fragrant molecule for odor molecule in cucurbit[7]uril complex, evaluated by 1H-NMR; type: binding
# Experimental: Cucurbit[7]uril was dissolved in distilled water to obtain a 2 mM cucurbit[7]uril aqueous solution. Ethyl butyrate (2 mM), which is a fragrant material, was added to the solution to obtain a complex (cucurbit[7]uril:ethyl butyrate=1:1). The bonding of diallyldisulfide with cucurbituril according to the addition of diallyldisulfide, which is an odor material, and the release of ethyl butyrate according to the addition of diallyldisulfide were evaluated comparing the 1H-NMR peak of the complex after the addition of diallyldisulfide with the 1H-NMR peak of the complex before the addition of diallyldisulfide.
# (§1) Cucurbit[7]uril was dissolved in distilled water to obtain a 4 mM cucurbit[7]uril aqueous solution. Menthol (4 mM), which is a fragrant material, was added to the solution to obtain a complex (cucurbit[7]uril:menthol=1:1). The bonding of diaminohexane with cucurbituril according to the addition of diaminohexane, which is an odor material, and the release of menthol according to the addition of diaminohexane were evaluated comparing the 1H-NMR peak of the complex after the addition of diaminohexane with the 1H-NMR peak of the complex before the addition of diaminohexane.
# as §1, with “Hexanal” for “Menthol”, “(cucurbit[7]uril:hexanal=1:1).” for “(cucurbit[7]uril:menthol=1:1).”, “hexanal” for “menthol”
# [3] = cited from earlier work
molecule,measurement,setting,value
O=C1N2CN3C(=O)N4CN5C(=O)N6CN7C(=O)N8CN9C(=O)N%10CN%11C(=O)N%12CN1C1C2N2CN%13C(=O)N(CN%14C(=O)N(CN%15C(=O)N(CN%16C(=O)N(CN%17C(=O)N(CN1C2=O)C%12C%11%17)C%10C9%16)C8C7%15)C6C5%14)C4C3%13 (stereo not shown) [cucurbit[6]uril],complex formation with menthol (FIG. 2),[1],barely makes a complex with menthol
O=C1N2CN3C(=O)N4CN5C(=O)N6CN7C(=O)N8CN9C(=O)N%10CN%11C(=O)N%12CN%13C(=O)N%14CN%15C(=O)N%16CN1C1C2N2CN%17C(=O)N(CN%18C(=O)N(CN%19C(=O)N(CN%20C(=O)N(CN%21C(=O)N(CN%22C(=O)N(CN%23C(=O)N(CN1C2=O)C%16C%15%23)C%14C%13%22)C%12C%11%21)C%10C9%20)C8C7%19)C6C5%18)C4C3%17 (stereo not shown) [cucurbit[8]uril],complex formation with menthol (FIG. 2),[1],weakly makes a complex with menthol
"C=CCSSCC=C [diallydisulfide, diallyldisulfide]",bonding of diallyldisulfide with cucurbituril (FIG. 3),"[2]; added to cucurbit[7]uril:ethyl butyrate=1:1 complex, 2 mM aqueous solution",makes a complex with cucurbituril
NCCCCCCN [diaminohexane],bonding of diaminohexane with cucurbituril (FIG. 5),"[2]; added to cucurbit[7]uril:hexanal=1:1 complex, 4 mM aqueous solution",makes a complex with cucurbituril
same,bonding of diaminohexane with cucurbituril (FIG. 4),"[2]; added to cucurbit[7]uril:menthol=1:1 complex, 4 mM aqueous solution",makes a complex with cucurbituril
CCCC(=O)OCC [ethyl butyrate],release of ethyl butyrate from the complex (FIG. 3),"[2]; cucurbit[7]uril:ethyl butyrate=1:1, 2 mM aqueous solution, diallyldisulfide added",released from the complex
CCCCCC=O [hexanal],release of hexanal from the complex (FIG. 5),"[2]; cucurbit[7]uril:hexanal=1:1, 4 mM aqueous solution, diaminohexane added",released from the complex
CC1CCC(C(C)C)C(O)C1 (stereo not shown) [menthol],release of menthol from the complex (FIG. 4),"[2]; cucurbit[7]uril:menthol=1:1, 4 mM aqueous solution, diaminohexane added",released from the complex
cucurbit[7]uril,complex formation with menthol (FIG. 2),[1],strongly makes a complex with menthol
same,solubility in water,[3],2˜3×10^−2 M
